For one test, the system named is migraine attack. To be noted: human, open pilot study; cited from earlier work.
In a further test the test system is migraine. The following applies: human, single i.v. administration; cited from earlier work.
Another test deals with persistent shock. To be noted: human, up to 30 days; cited from earlier work.
Another test concerns cardiogenic shock. To be noted: human, randomized trial of 30 patients; reduced from 67%; cited from earlier work.
Test [1] deals with Recombinant human inducible NOS (iNOS) (Homo sapiens (Human), UniProt P35228). Kind of test: Human iNOS enzyme assay (Protocol 1 or Protocol 2, radiometric). Type of test: biochemical. How it is done:
The human iNOS assay was carried by either one of the two protocols as described herein:
Recombinant human inducible NOS (iNOS) was produced in Baculovirus-infected Sf9 cells (ALEXIS). In a radiometric method, NO synthase activity was determined by measuring the conversion of [^3H]L-arginine to [^3H]L-citrulline. To measure iNOS, 10 μL of enzyme was added to 100 μL of 100 mM HEPES, pH=7.4, containing 1 mM CaCl2, 1 mM EDTA, 1 mM dithiothreitol, 1 μM FMN, 1 μM FAD, 10 μM tetrahydrobiopterin, 120 μM NADPH, and 100 nM CaM.
To measure enzyme inhibition, a 15 μL solution of a test substance was added to the enzyme assay solution, followed by a pre-incubation time of 15 min at RT. The reaction was initiated by addition of 20 μL L-arginine containing 0.25 μCi of [^3H] arginine/mL and 24 μM L-arginine. The total volume of the reaction mixture was 150 μL in every well. The reactions were carried out at 37° C. for 45 minutes, The reaction was stopped by adding 20 μL of ice-cold buffer containing 100 mM HEPES, 3 mM EGTA, 3 mM EDTA, pH=5.5. [^3H]L-citrulline was separated by DOWEX (ion-exchange resin DOWEX 50 W×8-400, SIGMA) and the DOWEX was removed by spinning at 12,000 g for 10 min in the centrifuge. An aliquot (70 μL) of the supernatant was added to 100 μL of scintillation fluid, and the samples were counted in a liquid scintillation counter (1450 Microbeta Jet, Wallac). Specific NOS activity was reported as the difference between the activity recovered from the test solution and that observed in a control sample containing 240 mM of the inhibitor L-NMMA. All assays were performed at least in duplicate. Standard deviations are 10% or less.
Primary stock solutions of each test compound were prepared in distilled water on the day of study to obtain a final concentration of 6 mM. For the determination of IC50 values, 11 test compound concentrations were prepared as 3-fold serial dilutions. Test compounds were tested in the iNOS assay at a concentration of 1000 μM to 0.0169 μM. The vehicle of the test compound or inhibitor, distilled water, was used as blank control. For non-specific activity, 100 μM L-NMMA was run in parallel as a control.
All incubations were performed in duplicate
The reaction mixture was prepared on ice by the addition of the following components to the appropriate well of a 1.0 mL 96-well polypropylene plate:
10 μL of test compound, reference inhibitor, or control (vehicle or L-NMMA) solution;
25 μL of Reaction Buffer (50 mM Tris-HCl, 6 μM BH4, 2 μM FMN, 2 μM FAD);
5 μL of 10 mM NADPH solution;
5 μL of 1 μM Calmodulin; and
The reaction mixture was pre-incubated at room temperature for 15 minutes. Following this pre-incubation, the reaction was initiated by the addition of 5 μL of the substrate L-arginine (1 μCi of [^3H]-L-Arginine+30 μM of unlabeled L-Arginine) to the reaction mixture. The total reaction volume was 60 μL. The assay plate containing the reaction mixtures was sealed and incubated at 37° C. for 30 minutes. At the end of this incubation period, 400 μL of ice-cold Stop Buffer (the EDTA in the Stop Buffer chelates all of the available calcium) was added to each well to stop the reaction. 100 μL of equilibrated resin pH 5.5 was added to each of the assay wells. The reaction samples were vortexed and transferred to spin cups, after-which they were centrifuged at 13,000 rpm for 30 sec. The spin cups were removed from the holder and […] (containing the unbound L-citrulline) were added to the appropriate wells of a 96-well liquid scintillation plate. 175 μL of scintillation fluid were also added to each well. The plate was sealed, and radioactivity was quantitated using a Microbeta liquid scintillation counter.
Data were analyzed using a Sigmoidal dose-response (variable slope) curve to determine the IC50 value of the test compound. Y=Bottom+(Top−Bottom)/(1+10^((Log IC50−X)*Hill Slope))

Test [2] concerns the target Nitric oxide synthase (endothelial, human recombinant) eNOS (Homo sapiens (Human), UniProt P29474). Kind of test: Human eNOS enzyme assay ([3H]-L-arginine to L-citrulline conversion). Format: biochemical. As for the experimental part:
(§1) nNOS (Human), eNOS (Human) and iNOS (Human) Enzyme Assay
(§2) Primary stock solutions of test compounds at a concentration of 6 mM were prepared from the 2 to 5 mg powder. The primary stock solutions of each test compound were prepared freshly in distilled water on the day of study to obtain a final concentration of 6 mM. For determination of IC50 values, 12 test compound concentrations were prepared as 3-fold serial dilutions. Concentration range of test compound utilized for nNOS were 0.001 to 300 μM and for eNOS were 0.003 to 1000 μM. The vehicle of the test compound or inhibitor was used as blank control. For non-specific activity, 100 μM L-NMMA was used. Runs using the IC50 concentration of L-NAME were done in parallel as controls.
(§3) All incubations are performed in duplicate
(§4) The reaction mixture was prepared on ice by adding the following components with a micropipette to a polypropylene microcentrifuge tube: • 10 μL of test compound, inhibitor or control (vehicle or L-NMMA) solution; • 25 μL of Reaction Buffer {25 mM Tris-HCl, 0.6 μM BH4, 0.2 μM FMN, 0.2 μM FAD}; • 5 μL of 10 mM NADPH solution {1 mM} (freshly prepared in 10 mM Tris-HCl (pH 7.4); • 5 μL of 6 mM CaCl2 {600 W}; • 5 μL of 1 mM Calmodulin {100 W}; and • 5 μL of 0.02 μg/μL nNOS or 0.12 μg/μL eNOS.
(§5) The above reaction mixture was pre-incubated at room temperature for 15 mins.
(§6) The reaction was started by the addition of the substrate (in 5 μL containing 1 μCi of [^3H]-L-Arginine+2.5 μM of unlabeled L-Arginine) to the reaction mixture. Total reaction volume is 60 μL.
(§7) The reaction was mixed using a vortex mixer and incubate the above reaction mixture at 37° C. in an incubator for 30 minutes.
(§8) To stop the reaction, 400 μL of ice-cold Stop Buffer was added at the end of the incubation period.
(§9) The reaction was then mixed using a vortex mixer, and the reaction samples were transferred to spin cups, which were centrifuged using a microcentrifuge, at 13,000 rpm for 30 sec. at room temperature.
(§10) The spin cups were removed from the holder, 450 μL of eluate (containing the unbound L-citrulline) were transferred to scintillation vials. 3 mL of scintillation fluid were added and the radioactivity was quantified in a liquid scintillation counter.
(§11) Data was analyzed using a Sigmoidal dose-response (variable slope) curve to determine the IC50 value of the test compound. Y=Bottom+(Top−Bottom)/(1+10^((Log IC50−X)*Hill Slope))

For test [3], the target named is Nitric oxide synthase (neuronal, human recombinant) nNOS (Homo sapiens (Human), UniProt P29475). Kind of test: Human nNOS enzyme assay ([3H]-L-arginine to L-citrulline conversion). Format: biochemical. The following applies: for Selectivity eNOS/nNOS: ratio of human eNOS IC50 to human nNOS IC50; for IC50: recombinant human nNOS. As for the experimental part: as §1, §2, §3, §4, §5, §6, §7, §8, §9, §10, §11

Data on seven molecules can be found in patent US8618286B2, “Benzoxazines, benzothiazines, and related compounds having NOS inhibitory activity” (NeurAxon, Inc., priority 2008, dated 2013).

Counter-ions that a name gives are not always drawn.

`C/C1=C2/[N-][C@H]([C@H](CC(N)=O)[C@@]2(C)CCC(=O)NC[C@@H](C)OP(=O)([O-])O[C@H]2[C@@H](O)[C@@H](n3cnc4cc(C)c(C)cc43)O[C@@H]2CO)[C@]2(C)N=C(/C(C)=C3N=C(/C=C4N=C1[C@@H](CCC(N)=O)C\4(C)C)[C@@H](CCC(N)=O)[C@]\3(C)CC(N)=O)[C@@H](CCC(N)=O)[C@]2(C)CC(N)=O.[Co+3].[OH-]` [hydroxycobalamin]: in the test with migraine attack, the “patients with a reduction in the frequency of migraine attack of 50%” value is recorded as 53%.

Regarding `CN=C(N)NCCC[C@H](N)C(=O)O.Cl` [L-NMMA, L-N^G methylarginine hydrochloride], in the test with migraine, the response rate is 67%. Moreover, the survival rate with persistent shock was 72%.

As to `COC(=O)[C@@H](N)CCCNC(=N)N[N+](=O)[O-]` [L-NAME, N^G-Nitro-L-arginine methyl ester], in the test with cardiogenic shock, the patient mortality is on record as 27%.

With `N=C(Nc1ccc2c(c1)SCCN2CCNCCO)c1cccs1` [Compound 16, N-(4-(2-(2-hydroxyethylamino)ethyl)-3,4-dihydro-2H-benzo[b][1,4]thiazin-7-yl)thiophene-2-carboximidamide dihydrochloride], the IC50 in test [1] came to 58.7 µM; in test [2], 7 µM; in test [3] it was 34 nM. Further, the “Selectivity eNOS/nNOS” value in test [3] was determined as 205.

With `CN(C)CCN1CCSc2ccc(NC(=N)c3cccs3)cc21` [Compound 27, N-(4-(2-(dimethylamino)ethyl)-3,4-dihydro-2H-benzo[b][1,4]thiazin-6-yl)thiophene-2-carboximidamide], the IC50 in test [1] came to 66.5 µM; in test [2] it was 34.9 µM; in test [3], 130 nM. Besides, the “Selectivity eNOS/nNOS” value in test [3] is 268.4.

Consider `CCNCCN1CCSc2ccc(NC(=N)c3cccs3)cc21` [Compound 24, N-(4-(2-(ethylamino)ethyl)-3,4-dihydro-2H-benzo[b][1,4]thiazin-6-yl)thiophene-2-carboximidamide], for which the figures for the IC50 in test [1], in test [2] and in test [3] were 82.3 µM, 4.45 µM and 50 nM, respectively. The “Selectivity eNOS/nNOS” value in test [3] is given as 89.

Turning to `N=C(Nc1ccc2c(c1)N(CCNCCO)CCS2)c1cccs1` [Compound 26, N-(4-(2-(2-hydroxyethylamino)ethyl)-3,4-dihydro-2H-benzo[b][1,4]thiazin-6-yl)thiophene-2-carboximidamide], the figures for the IC50 in test [1], in test [2] and in test [3] were 60.1 µM, 8.48 µM and 150 nM, respectively. The “Selectivity eNOS/nNOS” value in test [3] is on record as 56.5.
